Reference: the METLIN SMRT retention time set (Domingo-Almenara et al. 2019)

Test: gradient 5% acetonitrile 3 min, to 50% in 2 min, to 85% in 15 min, held 3 min, 100 µL/min
Conditions: column: Zorbax Extend-C18 2.1 x 50 mm; eluents: water / acetonitrile, 0.1% formic acid
Method in brief: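 Over 3 months, pure standards in mixtures of ~100 molecules were run by HPLC coupled to a quadrupole time-of-flight mass spectrometer in positive and negative ionization mode. The column was a Zorbax Extend-C18 (2.1 × 50 mm, 1.8 μm) at 100 μL/min, eluted with water and acetonitrile each holding 0.1% formic acid, with 40 μL dead and 900 μL dwell volumes. Retention time was determined from adduct peaks chosen by software and checked manually.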

RP-LC retention time [s]	Structure (SMILES)
685	CC(Oc1ccccc1)C(=O)N(C)CC1(C)CCOCC1 (centres undefined)
996	CCn1cc(-c2nc(CC(=O)Nc3ccc(Cl)cc3)cs2)c2cccnc21
566	COC(=O)C1=C(CN2CCOCC2)NC(=O)NC1c1ccc(Cl)cc1 (centres undefined)
624	c1cncc(-c2noc(CCC3CCCN(C4CCCCC4)C3)n2)c1 (centres undefined)
600	O=C(c1ccc[nH]1)N1CCN(C(=O)c2ccco2)CC1
1110	COc1ccc(OCc2nc(-c3ccc4c(c3)oc(=O)n4C(C)C)no2)cc1
1150	Cc1ccc(-c2csc(NC(=O)c3ccccc3Br)n2)c(C)c1
850	Cc1cc(C)cc(C(=O)N2CCCC(C(=O)NCCc3cccs3)C2)c1 (centres undefined)
960	CCC(=O)N1CCc2c(C(=O)N3CCN(c4ccccc4Cl)CC3)cccc21
703	NS(=O)(=O)c1ccc(NC(=O)C2CCCN(c3ccc(=O)n(-c4cccc(F)c4)n3)C2)cc1 (centres undefined)
759	CC1CCN(C(=O)Cc2nnc3cc(-c4nc(C5CC5)no4)ccn23)CC1
913	COc1ccc(NC(=O)c2nc(C)oc2C)c(OC)c1
804	CCc1ccc(C(=O)CC2(O)C(=O)Nc3ccc(C)cc32)cc1 (centres undefined)
1050	Cc1nc2cc(-c3noc(Cc4c(F)cccc4Cl)n3)ccc2o1
769	c1ccc(CN2CCN(c3ncccc3-c3nc(-c4ccccc4)no3)CC2)cc1
787	CC(C)c1noc(C2CCCN(S(=O)(=O)c3cccs3)CCC(=O)NCC2)n1 (centres undefined)
578	Cc1ccc(NC(=O)CC2SC3=NCCN3C2=O)cc1 (centres undefined)
940	CN(Cc1ccccc1)C(=O)Cn1cccc1-c1nnc(-c2ccccc2)o1
742	CCCNC(=O)C1CCCN(c2nc3ncn(CC(=O)Nc4ccccc4OCC)c(=O)c3s2)C1 (centres undefined)
578	COCCNC(=O)C1CCN(c2nc3ccc(-c4cccnc4)nc3s2)CC1
604	Cc1nn(C)cc1CN(C)C(=O)COc1ccc(NC(=O)C2CC2)cn1
746	O=C(c1cc(=O)c2ccccc2o1)N1CCC(c2nnc(-c3ccc(F)cc3)o2)CC1

RP-LC retention time [s]	Structure (SMILES)
743	CCOC(=O)COc1cc(-c2ccccc2)nc2ccc(NC(=O)c3ccco3)cc12
978	Cc1ccc(NC(=O)N2CCCC(C)(C(=O)NCc3ccccc3C)C2)cc1C (centres undefined)
579	CCCCNC(=O)Cn1c(N)nc(CC)cc1=O
629	COc1ccc(-n2nc(SCC(=O)Nc3ccc(Cl)cc3)ccc2=O)cc1
915	O=C(NCc1ccc(-c2noc(/C=C/c3ccccc3)n2)s1)C1CC1
926	COc1ccc(-c2ccc3nc(N4CCC(C(=O)NC(C)C)CC4)sc3n2)cc1
784	O=C(Cc1nnc(-c2ccc3ncccc3c2)o1)Nc1cc(F)cc(F)c1
726	O=C(COc1ccc(-c2cnc3ccccc3n2)cc1)NCC1CCCO1 (centres undefined)
1210	CCCn1c(=O)c2c(C(=O)N3CCN(c4ccc(Cl)cc4)CC3)cc(=O)n(CCC)c2n(C)c1=O
740	CCOc1ccc(NC(=O)Nc2cccc(-c3ccc(N4CCCCC4)nn3)c2)cc1
682	CCc1cccc(NC(=O)Cn2c(N3CCCC3)nc(C)cc2=O)c1
705	CCOC(=O)C1CCN(c2ncc(C(=O)Nc3ccccc3)c(N)n2)CC1
581	COCC(C)(O)CNC(=O)c1ccsc1 (centres undefined)
881	Cc1c(N2CCN(C(=O)C3CCCCC3)CC2)c(=O)n(C)c(=O)n1-c1ccccc1
879	O=C(NCc1ccccc1)c1nnc(-c2ccc(S(=O)(=O)N3CCCC3)cc2)o1
553	Cc1cc(NC(=O)c2ccc(-n3ccnc3)nn2)no1
650	Cn1cnnc1-c1nn(C)c2c1CN(C(=O)c1n[nH]c3c1CCCCCC3)CC2
583	CNC(=O)N1CCC(OC(C)=O)CC1
713	COc1cccc(CNC(=O)C2CCN(S(=O)(=O)c3ccc4c(c3)CCCC(=O)N4)CC2)c1
597	CN1CCC(NC(=O)c2n[nH]c3c2CN(C(=O)c2cc(F)cc(F)c2)CC3)CC1
737	Cc1noc(-c2ccc(-n3ncc(C(=O)NC4CCCCC4)c3C)nc2)n1
1030	CCNS(=O)(=O)c1cccnc1Nc1cccc(Cl)c1

RP-LC retention time [s]	Structure (SMILES)
996	COc1cc(Cl)c(C)cc1NC(=O)C1CCCN(c2ncnc3c2nc2n3CCCCC2)C1 (centres undefined)
686	Cc1nc(-c2csc(S(=O)(=O)N3CCCC(C(=O)NCc4ccc(N(C)C)cc4)C3)c2)no1 (centres undefined)
734	COCc1cc(=O)n(CC(=O)Nc2cc(OC)c(OC)c(OC)c2)c(N2CCOCC2)n1
874	CCC(C)NC(=O)c1ccc(Cn2nc(C)c(S(=O)(=O)N3CCCCC3)c2C)cc1 (centres undefined)
785	CCN(CC)C(=O)c1ccc2c(c1)nnn2CCNC(=O)Nc1ccc(Br)c(C)c1
718	COc1ccc(-c2cn3cccnc3n2)cc1NC(=O)c1cccc(OC)c1OC
727	O=C1CC(C(F)(F)F)c2c(c(C(=O)O)cn2-c2ccc(F)cc2)N1 (centres undefined)
950	CCCn1cc(S(=O)(=O)Nc2cc(F)ccc2Cl)c2cccnc21
564	CN(C)c1ccc(CNC(=O)C2CCN(c3cncnc3N3CCCCC3)CC2)cc1
864	N#Cc1ccc(C(=O)N2CCOc3ccccc32)cc1
728	CS(=O)(=O)N1CCC(Cc2ccc(C(=O)O)cc2)CC1
1270	Cc1nc2cc(-c3noc(-c4cccc(Br)c4)n3)ccc2o1
1010	CC(C)(C)c1csc(-c2csc(S(=O)(=O)NC3CCCCCC3)c2)n1
833	CCNS(=O)(=O)c1cc(-c2nnc(-c3ccc(OC)c(OC)c3)o2)ccc1C
611	Clc1ccc(-c2ccc(CNCC3CCNCC3)o2)c(Cl)c1
853	CCCN(CC1CCOC1)C(=O)Nc1cccc(Cl)c1F (centres undefined)
734	COc1ccc(Cn2nc3c(S(=O)(=O)N4CCOCC4)cccn3c2=O)cc1
664	Cc1cccc2nc(-c3ccc(N4CCOCC4)cc3)c(Nc3ccc4c(c3)OCCO4)n12
641	COCCNC(=O)Cn1c(C(F)(F)F)nc2cc3c(cc21)OCCO3
671	Cn1nccc1C(=O)N1CCN(c2cc(-c3ccccc3)[nH]n2)CC1
1280	CC(C)(C)c1ccc(-c2noc(Cn3c(=O)n(-c4ccc(Cl)cc4)c(=O)c4sccc43)n2)cc1
824	Cc1nnc(-c2coc(S(=O)(=O)N3CCCCCC3)c2)o1

RP-LC retention time [s]	Structure (SMILES)
638	CCOc1ccc(S(=O)(=O)N2CCC3(CC2)CN(C)CC3c2nnc(CC)o2)cc1 (centres undefined)
952	CC(NC(=O)C1(c2ccc(NS(C)(=O)=O)cc2)CCCCC1)c1ccc(F)cc1 (centres undefined)
627	O=C(NCCc1csc(C2CCCN(C(=O)C3CCCO3)C2)n1)C1CC1 (centres undefined)
837	CCOc1ccc(NC(=O)c2oc3ccc(CC)cc3c2C)c2cccnc12
1020	CCCn1cc(C(=O)NCCCOC)c(S(=O)(=O)N2CCN(c3cccc(Cl)c3)CC2)n1
840	COc1ccc(NS(=O)(=O)c2cn(C(C)C)c3ncccc23)cc1
772	CCOC(=O)c1c(S(=O)(=O)N2CCC(C(=O)NCc3cccc(OC)c3)CC2)c(C)n(C)c1C
826	O=C(CN1CCN(Cc2ccc(F)cc2)C1=O)NCc1cc(F)cc(F)c1
751	Cc1ccc(-c2cc(C(=O)NCCCN3CCc4ccccc4C3)c(C)[nH]2)cc1C
797	Cc1ccc2c(Nc3cccc(C)c3C)c(-c3nc(C)no3)cnc2n1
809	Cc1nn(CC(=O)N2CCOCC2)c(=O)c2c(-n3cccc3)n(-c3ccc(F)cc3)nc12
743	O=C(CCn1cnc2cc(-c3noc(-c4ccccc4Br)n3)ccc21)N1CCOCC1
634	CC(=O)c1ccc(S(=O)(=O)N2CCC(CN3CCCC(C)C3)CC2)cc1 (centres undefined)
570	CN1CCN(C(=O)C2CCCN(c3ncnc4c3nc3n4CCCCC3)C2)CC1 (centres undefined)
831	COc1ccc(S(=O)(=O)N2CCCC(C(=O)Nc3ccc(F)cc3)C2)cc1OC (centres undefined)
666	COc1ccc(NC(=O)C2CCN(c3nnc4ccccn34)CC2)cc1Cl
684	COc1ccc(NC(=O)c2cnc(N3CCN(c4ccccc4F)CC3)nc2N)cc1
619	CCOc1cccc(CN2Cc3ccccc3OC3(CCN(CCOC)CC3)C2)c1
1180	COc1ccc(Cl)cc1NC(=O)Cn1c(C)nc2c(sc3nc(-c4ccccc4)ccc32)c1=O
933	COc1ccccc1CNC(=O)c1c(O)c2cccnc2[nH]c1=O
776	COc1ccc(OC)c(NC(=O)Cn2c(C)cc(-c3nnc(C)o3)c2C)c1

Structure (SMILES)	RP-LC retention time [s]
CN1CC=C(c2noc(CCC(=O)N3CCC(c4ccccc4)C3)n2)CC1 (centres undefined)	631
C[C@H]1CC[C@@H]2N(C1)C[C@H]1[C@@H]3C[C@H]4[C@@H](CC(=O)[C@H]5C[C@@H](O)CC[C@@]54C)[C@@H]3CC[C@H]1[C@]2(C)O	601
